Like-named read-outs stand apart in the source and are kept apart here.

This experiment concerns HCT116 MTAP-deleted cell lines. The experiment in a line: Cell viability assay (CellTiter-Glo, 7 days), HCT116 MTAP-deleted. Type of experiment: cell-based. Conditions: Homo sapiens, HCT-116, HCT116 MTAP-deleted, class symbols, read-out: CC50. The method in brief: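 PRMT5 inhibitors were serially diluted in DMSO and acoustically spotted as dose-response series into plates before cell seeding. Cells were grown with compound for 7 days at 37 °C, 5% CO2, 90% humidity, then viability was read by CellTiter-Glo luminescence and reported as CC50.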
For orientation: Cellular ATP, detected with luciferase, serves as a proxy for viable cell number.

Usually CC50 stands for the concentration at which the toxic effect on the cells reaches its halfway point. Take `CC1Oc2cc(C(F)(F)F)ccc2C1N(C)C(=O)c1cc2c(cc1F)nc(N)c1cncn12` (stereo not drawn) [Ff-114, 4-amino-7-fluoro-N-methyl-N-(2-methyl-6-(trifluoromethyl)-2,3-dihydrobenzofuran-3-yl)imidazo[1,5-a]quinoxaline-8-carboxamide]: under “cell viability”, the CC50 was less than 100 nM. On the same count and under the same terms, as for `Cc1ncc2c(N)nc3ccc(C(=O)N4CCC5(CC4)C(=O)N(C)c4ccccc45)cc3n12` [Ff-64, 1′-(4-amino-1-methylimidazo[1,5-a]quinoxaline-8-carbonyl)-1-methylspiro[indoline-3,4′-piperidin]-2-one], the figure is 100 to 1000 nM. Take `Cc1ncn2c1c(N)nc1cc(F)c(C(=O)N3C[C@H](C)C[C@@H]4Oc5nc(C(F)(F)F)ccc5[C@@H]43)cc12` [Ff-374, (4-amino-7-fluoro-3-methylimidazo[1,5-a]quinoxalin-8-yl)((3R,4aS,9bS)-3-methyl-7-(trifluoromethyl)-3,4,4a,9b-tetrahydrofuro[2,3-b:4,5-b′]dipyridin-1(2H)-yl)methanone]: for the setting “cell viability assay”, the CC50 is less than 100 nM. With `Cc1ncn2c1c(N)nc1cc(F)c(C(=O)N3C[C@@H](F)C[C@@H]4Oc5cc(C(F)(F)F)ccc5[C@@H]43)cc12` [Ff-659, (4-amino-7-fluoro-3-methylimidazo[1,5-a]quinoxalin-8-yl)((3S,4aS,9bS)-3-fluoro-7-(trifluoromethyl)-3,4,4a,9b-tetrahydrobenzofuro[3,2-b]pyridin-1(2H)-yl)methanone], where the note is “cell viability assay”, the CC50 is less than 100 nM. The same measure, in the same setting: as for `Nc1nc2cc(F)c(C(=O)N3CC[C@H]4C[C@@H]3c3ccc(OC(F)(F)F)cc3O4)cc2n2cncc12` (racemic) [Ff-372, Rac-(4-amino-7-fluoroimidazo[1,5-a]quinoxalin-8-yl)((2S,6R)-9-(trifluoromethoxy)-3,4-dihydro-2H-2,6-methanobenzo[b][1,5]oxazocin-5(6H)-yl)methanone], the figure is less than 100 nM. With `Nc1nc2ccc(C(=O)N3CCOC[C@@H]3c3ccc(C(F)(F)F)cc3)cc2n2cncc12` [Ff-84, (S)-(4-aminoimidazo[1,5-a]quinoxalin-8-yl)(3-(4-(trifluoromethyl)phenyl)morpholino)methanone], the CC50 (cell viability) lay within 100 to 1000 nM. On to `[2H]C([2H])([2H])[C@@H]1CN(C(=O)c2cc3c(cc2F)nc(N)c2cncn23)[C@H]2c3ccc(C(F)(F)F)cc3C[C@H]2O1` (single isomer, unassigned) [Ff-638], for which the CC50 (cell viability assay) is less than 100 nM. The same measure, in the same setting: the result for `CN(C(=O)c1cc2c(cc1F)nc(N)c1cncn12)[C@@H]1COc2cc(S(F)(F)(F)(F)F)ccc21` [Ff-652, (S)-4-amino-7-fluoro-N-methyl-N-(6-(pentafluoro-16-sulfaneyl)-2,3-dihydrobenzofuran-3-yl)imidazo[1,5-a]quinoxaline-8-carboxamide] reads less than 100 nM. Regarding `Nc1nc2cc(F)c(C(=O)N3CCC[C@@H]4OCc5cc(-c6ccn(C(F)(F)F)n6)ccc5[C@@H]43)cc2n2cncc12` (racemic) [Ff-294, Rac-(4-amino-7-fluoroimidazo[1,5-a]quinoxalin-8-yl)((4aS,10bS)-8-(1-(trifluoromethyl)-1H-pyrazol-3-yl)-2,3,4,4a,6,10b-hexahydro-1H-isochromeno[4,3-b]pyridin-1-yl)methanone], the CC50 (cell viability) is less than 100 nM. Still for that read-out and setting: as for `C[C@@H]1C[C@@H]2Oc3cc(C(F)(F)F)c(F)cc3[C@@H]2N(C(=O)c2cc3c(cn2)nc(N)c2cncn23)C1` [Ff-261, (4-aminoimidazo[1,5-a]pyrido[3,4-e]pyrazin-8-yl)((3R,4aS,9bS)-8-fluoro-3-methyl-7-(trifluoromethyl)-3,4,4a,9b-tetrahydrobenzofuro[3,2-b]pyridin-1(2H)-yl)methanone], the figure is less than 100 nM.

As to `CN(Cc1ccc(C(F)(F)F)cc1C(F)(F)F)C(=O)c1ccc2nc(N)c3cncn3c2c1` [Ff-409, 4-amino-N-[[2,4-bis(trifluoromethyl)phenyl]methyl]-N-methyl-imidazo[1,5-a]quinoxaline-8-carboxamide], the CC50 (cell viability assay) lay within 100 to 1000 nM. `Nc1nc2cc(F)c(C(=O)N3CCO[C@@H]4Cc5cc(-c6cnn(C(F)F)c6)ccc5[C@@H]43)cc2n2cncc12` [Ff-235, (4-amino-7-fluoroimidazo[1,5-a]quinoxalin-8-yl)((4aS,9aR)-7-(1-(difluoromethyl)-1H-pyrazol-4-yl)-2,3,9,9a-tetrahydroindeno[2,1-b][1,4]oxazin-4(4aH)-yl)methanone]: the CC50 (cell viability) was less than 100 nM. The same measure, in the same setting: the result for `Cc1ncn2c1c(N)nc1cc(F)c(C(=O)N3CCC[C@@H]4OCc5nc(C(F)(F)F)ccc5[C@@H]43)cc12` [Ff-358, (4-amino-7-fluoro-3-methylimidazo[1,5-a]quinoxalin-8-yl)((4aS,10bS)-8-(trifluoromethyl)-2,3,4,4a,6,10b-hexahydro-1H-pyrano[3,2-b:5,4-b′]dipyridin-1-yl)methanone] reads less than 100 nM; that for `Nc1nc2cc(F)c(C(=O)N3CCC[C@@H]4Oc5c(ccc(F)c5F)[C@@H]43)cc2n2cncc12` (racemic) [Ff-102, Rac-(4-amino-7-fluoroimidazo[1,5-a]quinoxalin-8-yl)((4aS,9bS)-6,7-difluoro-3,4,4a,9b-tetrahydrobenzofuro[3,2-b]pyridin-1(2H)-yl)methanone], 100 to 1000 nM; that for `CN(C(=O)c1cc2c(cc1F)nc(N)c1cncn12)[C@H]1COCc2nc(C(F)(F)F)ccc21` [Ff-282, (R)-4-amino-7-fluoro-N-methyl-N-(2-(trifluoromethyl)-5,8-dihydro-6H-pyrano[3,4-b]pyridin-5-yl)imidazo[1,5-a]quinoxaline-8-carboxamide], 100 to 1000 nM.

As to `Nc1nc2cnc(C(=O)N3CC[C@H]4C[C@@H]3c3ccc(OC(F)(F)F)cc3O4)cc2n2cncc12` (racemic) [Ff-373, Rac-(4-aminoimidazo[1,5-a]pyrido[3,4-e]pyrazin-8-yl)((2S,6R)-9-(trifluoromethoxy)-3,4-dihydro-2H-2,6-methanobenzo[b][1,5]oxazocin-5(6H)-yl)methanone], the CC50 (cell viability assay) was less than 100 nM. As for `CN(C(=O)c1ccc2nc(N)c3cncn3c2c1)[C@@H]1COc2cc(C(F)(F)F)c(F)cc21` [Ff-353, (S)-4-amino-N-(5-fluoro-6-(trifluoromethyl)-2,3-dihydrobenzofuran-3-yl)-N-methylimidazo[1,5-a]quinoxaline-8-carboxamide], under “cell viability”, the CC50 is less than 100 nM.

For `Nc1nc2cnc(C(=O)N3CCOC[C@@H]3c3ccc(C(F)(F)F)cc3)cc2n2cncc12` [Ff-86, (S)-(4-aminoimidazo[1,5-a]pyrido[3,4-e]pyrazin-8-yl)(3-(4-(trifluoromethyl)phenyl)morpholino)methanone], under “cell viability”, the cytotoxic concentration (CC50) was less than 100 nM. The same measure, in the same setting: as for `C[C@H]1CN(C(=O)c2cc3c(cc2F)nc(N)c2cncn23)[C@@H]2c3ccc(C(F)(F)F)cc3C[C@@H]2O1` (single isomer, unassigned) [Ff-80], the figure is less than 100 nM. As to `Nc1nc2cc(Cl)c(C(=O)N3CC[C@H]4C[C@@H]3c3ccc(Cl)c(F)c34)cc2n2cncc12` [Ff-489, (4-amino-7-chloroimidazo[1,5-a]quinoxalin-8-yl)((1R,5S)-7-chloro-6-fluoro-1,3,4,5-tetrahydro-2H-1,5-methanobenzo[c]azepin-2-yl)methanone], the CC50 (cell viability assay) fell in the range of 100 to 1000 nM.

For `CN(C(=O)c1cc2c(cc1F)nc(N)c1cncn12)[C@@H]1COc2cc(OC(F)F)c(F)cc21` [Ff-584], the CC50 (cell viability assay) was less than 100 nM. Regarding `Cc1nc2cc([C@H]3CC[C@H](C)CN3C(=O)c3ccc4nc(N)c5cnc(C)n5c4c3)ccc2s1` [Ff-127], the CC50 (cell viability) was 100 to 1000 nM.

Take `Nc1nc2ccc(C(=O)N3CCO[C@@H]4Cc5cc(C(F)(F)F)ccc5[C@@H]43)cc2n2cncc12` (racemic) [Ff-33, Racemic (4-aminoimidazo[1,5-a]quinoxalin-8-yl)((4aS,9aR)-7-(trifluoromethyl)-2,3,9,9a-tetrahydroindeno[2,1-b][1,4]oxazin-4(4aH)-yl)methanone]: under “cell viability”, the CC50 lay in the range of 100 to 1000 nM. In the case of `Nc1nc2cc(F)c(C(=O)N3CCOC[C@H]3c3ccc(OC(F)(F)F)cc3)cc2n2cncc12` (single isomer, unassigned) [Ff-556], under “cell viability assay”, the CC50 lay in the range of 100 to 1000 nM.

As to `CN(C(=O)c1cc2c(cc1F)nc(N)c1cncn12)[C@@H]1COc2cc(C3CCOC3(C)C)ccc21` (stereo partly drawn) [Ff-486, 4-amino-N-((3S)-6-(2,2-dimethyltetrahydrofuran-3-yl)-2,3-dihydrobenzofuran-3-yl)-7-fluoro-N-methylimidazo[1,5-a]quinoxaline-8-carboxamide], the CC50 (cell viability assay) is less than 100 nM. As to `CCN(C(=O)c1cc2c(cc1F)nc(N)c1cncn12)[C@H](C)c1ccc(C(F)(F)F)cn1` [Ff-542, (R)-4-amino-N-ethyl-7-fluoro-N-(1-(5-(trifluoromethyl)pyridin-2-yl)ethyl)imidazo[1,5-a]quinoxaline-8-carboxamide], the CC50 (cell viability assay) was less than 100 nM. The same measure, in the same setting: as for `CN(C(=O)c1cc2c(cn1)nc(N)c1cncn12)[C@@H]1COc2cc(OC(F)(F)F)ccc21` [Ff-565, (S)-4-amino-N-methyl-N-(6-(trifluoromethoxy)-2,3-dihydrobenzofuran-3-yl)imidazo[1,5-a]pyrido[3,4-e]pyrazine-8-carboxamide], the figure is 100 to 1000 nM; as for `Cc1ncn2c1c(N)nc1ccc(C(=O)N3CCC[C@@H]4Oc5cc(OC(F)(F)F)ccc5[C@@H]43)cc12` (single isomer, unassigned) [Ff-400], less than 100 nM. Still for that read-out and setting: as for `Nc1nc2cnc(C(=O)N3CC4(CC4)C[C@@H]4Oc5cc(OC(F)(F)F)ccc5[C@@H]43)cc2n2cncc12` [Fg-61, (4-aminoimidazo[1,5-a]pyrido[3,4-e]pyrazin-8-yl)((4aS,9bS)-7-(trifluoromethoxy)-4a,9b-dihydro-2H-spiro[benzofuro[3,2-b]pyridine-3,1′-cyclopropan]-1(4H)-yl)methanone], the figure is less than 100 nM. As for `CN(Cc1ccc(-c2cnn(C(F)(F)F)c2)cc1Cl)C(=O)c1cc2c(cc1F)nc(N)c1cncn12` [Ff-552, 4-amino-N-(2-chloro-4-(1-(trifluoromethyl)-1H-pyrazol-4-yl)benzyl)-7-fluoro-N-methylimidazo[1,5-a]quinoxaline-8-carboxamide], the CC50 (cell viability assay) was 100 to 1000 nM.
